Data taken from patent US11008340B2, “Modulators of ROR-gamma” (Vitae Pharmaceuticals, LLC, priority 2015, dated 2021).
Read-outs that look alike come from different tables or passages of the source.

Columns and labels:
[1] = biological target: T1, recombinant RORγ Ligand Binding Domain (LBD) protein (Homo sapiens, UniProt P51449); assay: Radio-Ligand RORγ Binding Assay (Assay 1); conditions: radio-ligand competition, RORγ LBD, read-out: Avg ROR Bind Ki
T1 construct: 6×His; GST
T1 sequence (P51449 269-508 limits assumed): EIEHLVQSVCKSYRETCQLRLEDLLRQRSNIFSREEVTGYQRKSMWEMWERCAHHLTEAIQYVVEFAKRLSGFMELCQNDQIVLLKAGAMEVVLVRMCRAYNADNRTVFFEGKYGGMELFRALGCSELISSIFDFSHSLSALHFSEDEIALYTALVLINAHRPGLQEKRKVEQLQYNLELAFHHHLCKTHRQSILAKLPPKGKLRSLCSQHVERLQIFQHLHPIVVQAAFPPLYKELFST
Summary of the method: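 Cell-free SPA competition between compound and 25-hydroxy[26,27-^3H]-cholesterol for 6×His-GST-tagged RORγ LBD in 50 mM HEPES pH 7.4 with NaCl, MgCl2, glycerol, CHAPS, octylglucoside and DTT. Mix was shaken 20 min, held 10 min at rt, then read after poly-Lys YSi beads. IC50 came from a four-parameter fit, and Ki from radioligand KD.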

[2] = biological target: T2, full-length RORγt in Jurkat cells (Homo sapiens, UniProt P51449); assay: RORγt 5×RORE Assay in Jurkat Cells (Assay 2); assay type: cell-based; conditions: 5×RORE luciferase reporter, read-out: Avg ROR γt/5x IC50
T2 construct: transcriptional activity of the full-length RORγt in Jurkat cells; host or cells: Jurkat cells (ATCC TIB-152)
T2 sequence (P51449 1-497 isoform P51449-2): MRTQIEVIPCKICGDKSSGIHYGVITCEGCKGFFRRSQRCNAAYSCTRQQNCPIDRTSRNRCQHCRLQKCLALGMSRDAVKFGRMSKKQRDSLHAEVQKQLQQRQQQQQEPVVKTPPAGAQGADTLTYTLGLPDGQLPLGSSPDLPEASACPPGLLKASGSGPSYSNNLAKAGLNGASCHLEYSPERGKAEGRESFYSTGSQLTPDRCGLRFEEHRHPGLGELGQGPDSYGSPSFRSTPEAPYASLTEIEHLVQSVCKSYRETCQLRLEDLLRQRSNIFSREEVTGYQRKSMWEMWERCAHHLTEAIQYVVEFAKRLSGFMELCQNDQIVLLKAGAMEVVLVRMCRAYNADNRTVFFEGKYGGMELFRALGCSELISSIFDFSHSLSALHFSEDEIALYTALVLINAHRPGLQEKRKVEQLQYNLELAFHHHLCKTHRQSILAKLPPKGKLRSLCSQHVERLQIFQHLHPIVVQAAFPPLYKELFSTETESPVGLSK
Summary of the method: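 Jurkat cells transiently co-transfected with full-length RORγt expression plasmid and secreted NanoLuc reporter driven by 5×RORE; plated in phenol-red-free RPMI with 10% delipidated FBS. Compounds added at 0.1% DMSO final, 16-18 hrs at 37° C; supernatant luciferase read with NanoGlo as measure of inverse agonism.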

[3] = 25-hydroxy [26,27-3H]-cholesterol
[4] = head without unit (Tables 15, 17)

Row | Compound | Ki [1, 3] | IC50 [2] | Ki [1, 4] | IC50 [2, 4]
1 | CCc1c2ccc(C(=O)N[C@@H](CO)c3ccc(S(=O)(=O)CC)cc3)cc2nn1C[C@H]1CC[C@H](C(F)(F)F)CC1 [Hy3A-5, 3-ethyl-N-((R)-1-(4-(ethylsulfonyl)phenyl)-2-hydroxyethyl)-2-(((1r,4R)-4-(trifluoromethyl)cyclohexyl)methyl)-2H-indazole-6-carboxamide] | < 100 nM | < 100 nM | – | –
2 | CCS(=O)(=O)c1ccc([C@H](CO)NC(=O)c2ccc3c(C4CC4)n(C[C@H]4CC[C@H](C(F)(F)F)CC4)nc3c2)nc1 [Hy3A-6, 3-cyclopropyl-N-((R)-1-(5-(ethylsulfonyl)pyridin-2-yl)-2-hydroxyethyl)-2-(((1r,4R)-4-(trifluoromethyl)cyclohexyl)methyl)-2H-indazole-6-carboxamide] | < 100 nM | < 100 nM | – | –
3 | CCS(=O)(=O)c1ccc([C@H](CO)NC(=O)c2ccc3c(C4CC4)n(Cc4ccc(C(F)(F)F)cc4)nc3c2)nc1 [Hy3A-7, (R)-3-cyclopropyl-N-(1-(5-(ethylsulfonyl)pyridin-2-yl)-2-hydroxyethyl)-2-(4-(trifluoromethyl)benzyl)-2H-indazole-6-carboxamide] | < 100 nM | < 100 nM | – | –
4 | CCS(=O)(=O)c1ccc([C@H](CO)NC(=O)c2cnc3c(C4CC4)n(C[C@H]4CC[C@H](C(F)(F)F)CC4)nc3c2)cc1 [Hy3B-1, 3-cyclopropyl-N-((R)-1-(4-(ethylsulfonyl)phenyl)-2-hydroxyethyl)-2-(((1r,4R)-4-(trifluoromethyl)cyclohexyl)methyl)-2H-pyrazolo[4,3-b]pyridine-6-carboxamide] | < 100 nM | < 100 nM | – | –
5 | CCS(=O)(=O)c1ccc(CNC(=O)c2cnc3c(C4CC4)n(C[C@H]4CC[C@H](C(F)(F)F)CC4)nc3c2)cc1 [Hy3B-2, 3-cyclopropyl-N-(4-(ethylsulfonyl)benzyl)-2-(((1r,4r)-4-(trifluoromethyl)cyclohexyl)methyl)-2H-pyrazolo[4,3-b]pyridine-6-carboxamide] | < 100 nM | < 100 nM | – | –
6 | CCS(=O)(=O)c1ccc(CNC(=O)c2cc3ccnc(OC[C@H]4CC[C@H](C(F)(F)F)CC4)c3n2C)cc1 [Hy4-1, N-(4-(ethylsulfonyl)benzyl)-1-methyl-7-(((1r,4r)-4-(trifluoromethyl)cyclohexyl)methoxy)-1H-pyrrolo[2,3-c]pyridine-2-carboxamide] | – | – | < 100 nM | 100 to 1000 nM
7 | CCS(=O)(=O)c1ccc([C@H](CO)NC(=O)c2cc3ccnc(OC[C@H]4CC[C@H](C(F)(F)F)CC4)c3n2C)cc1 [Hy4-2, N-((R)-1-(4-(ethylsulfonyl)phenyl)-2-hydroxyethyl)-1-methyl-7-(((1r,4R)-4-(trifluoromethyl)cyclohexyl)methoxy)-1H-pyrrolo[2,3-c]pyridine-2-carboxamide] | – | – | < 100 nM | < 100 nM
8 | CCS(=O)(=O)c1ccc(CNC(=O)c2cc3ccnc(OCc4ccc(C(F)(F)F)cc4)c3n2C)cc1 [Hy4-3, N-(4-(ethylsulfonyl)benzyl)-1-methyl-7-((4-(trifluoromethyl)benzyl)oxy)-1H-pyrrolo[2,3-c]pyridine-2-carboxamide] | – | – | < 100 nM | 100 to 1000 nM
9 | CCS(=O)(=O)c1ccc([C@H](CO)NC(=O)c2cc3ccnc(OCc4ccc(C(F)(F)F)cc4)c3n2C)cc1 [Hy4-4, (R)-N-(1-(4-(ethylsulfonyl)phenyl)-2-hydroxyethyl)-1-methyl-7-((4-(trifluoromethyl)benzyl)oxy)-1H-pyrrolo[2,3-c]pyridine-2-carboxamide] | – | – | < 100 nM | 100 to 1000 nM
10 | CCS(=O)(=O)c1ccc(CNC(=O)c2cn(C)c3c(OCc4ccc(C(F)(F)F)cc4)nccc23)cc1 [Hy5-3, N-(4-(ethylsulfonyl)benzyl)-1-methyl-7-((4-(trifluoromethyl)benzyl)oxy)-1H-pyrrolo[2,3-c]pyridine-3-carboxamide] | < 100 nM | < 100 nM | – | –
11 | CCS(=O)(=O)c1ccc(CNC(=O)c2sc3nc(C)nc(OCc4ccc(C(F)(F)F)cc4)c3c2C)cc1 [Hy6-1, N-(4-(ethylsulfonyl)benzyl)-2,5-dimethyl-4-((4-(trifluoromethyl)benzyl)oxy)thieno[2,3-d]pyrimidine-6-carboxamide] | < 100 nM | 100 to 1000 nM | – | –
12 | CCS(=O)(=O)c1ccc(CNC(=O)c2sc3nc(C)nc(OC[C@H]4CC[C@H](C(F)(F)F)CC4)c3c2C)cc1 [Hy6-2, N-(4-(ethylsulfonyl)benzyl)-2,5-dimethyl-4-(((1r,4r)-4-(trifluoromethyl)cyclohexyl)methoxy)thieno[2,3-d]pyrimidine-6-carboxamide] | < 100 nM | 100 to 1000 nM | – | –
13 | CCS(=O)(=O)c1ccc([C@H](CO)NC(=O)c2sc3nc(C)nc(OCc4ccc(C(F)(F)F)cc4)c3c2C)cc1 [Hy6-3, (R)-N-(1-(4-(ethylsulfonyl)phenyl)-2-hydroxyethyl)-2,5-dimethyl-4-((4-(trifluoromethyl)benzyl)oxy)thieno[2,3-d]pyrimidine-6-carboxamide] | < 100 nM | < 100 nM | – | –
14 | CCS(=O)(=O)c1ccc([C@H](CO)NC(=O)c2sc3nc(C)nc(OC[C@H]4CC[C@H](C(F)(F)F)CC4)c3c2C)cc1 [Hy6-4, N-((R)-1-(4-(ethylsulfonyl)phenyl)-2-hydroxyethyl)-2,5-dimethyl-4-(((1r,4R)-4-(trifluoromethyl)cyclohexyl)methoxy)thieno[2,3-d]pyrimidine-6-carboxamide] | < 100 nM | < 100 nM | – | –
15 | Mixture of N-((R)-1-(4-(ethylsulfonyl)phenyl)-2-hydroxyethyl)-3-methyl-1-(((3S,6S)-6-(trifluoromethyl)tetrahydro-2H-pyran-3-yl)methoxy)isoquinoline-6-carboxamide and N-((R)-1-(4-(ethylsulfonyl)phenyl)-2-hydroxyethyl)-3-methyl-1-(((3R,6R)-6-(trifluoromethyl)tetrahydro-2H-pyran-3-yl)methoxy)isoquinoline-6-carboxamide [Hy1A-18.3] | < 100 nM | > 1000 nM | – | –
